Laboratory results as given in US6699854B2, “Anti-cancer compounds” (Cyclacel Limited, priority 2000, dated 2004).
Entries after “also recorded” stand apart in the source; their conditions may differ. Read-outs that look alike come from different tables or passages of the source.

Assays:
CDK2/cyclin E = biological target: T1, CDK2/cyclin E (Homo sapiens, UniProt P24941); assay: CDK2/cyclin E kinase assay (GST-Rb phosphorylation); type: biochemical;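 also: enzyme source: His-tagged CDK2/cyclin E co-expressed in Sf9 insect cells via baculovirus, then purified by metal-chelate chromatography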
T1 construct: His; made in house; host or cells: Sf9 insect cells (baculovirus)

A549 = assay: 72-h MTT cytotoxicity assay, A549; type: cell-based, human; conditions: Homo sapiens
Protocol: (§1) Selected compounds from the above examples were subjected to a standard cellular proliferation assay using a range of different human tumour cell lines. Standard 72-h MTT (thiazolyl blue; 3-{4,5-dimethylthiazol-2-yl}-2,5-diphenyltetrazolium bromide) assays were performed (Haselsberger, K.; Peterson, D. C.; Thomas, D. G.; Darling, J. L. Anti Cancer Drugs 1996, 7, 331-8; Loveland, B. E.; Johns, T. G.; Mackay, I. R.; Vaillant, F.; Wang, Z. X.; Hertzog, P. J. Biochemistry International 1992, 27, 501-10). Human tumour cell lines were obtained from the ATCC (American Type Culture Collection, 10801 University Boulevard, Manessas, Va. 20110-2209, USA).

S6 = S6 kinase assay (kinase panel); type: biochemical; conditions: Table 1
CDK1/cyclin B = biological target: T2, CDK1/cyclin B (Homo sapiens, UniProt P06493); assay: CDK1/cyclin B kinase assay (GST-Rb phosphorylation); type: biochemical; conditions: Table 1
T2 construct: His; made in house; host or cells: Sf9 insect cells (baculovirus)

SAPK2a = SAPK2a (Homo sapiens, UniProt Q16539); assay: SAPK2a kinase assay (kinase panel); type: biochemical; conditions: Table 1
CDK4/cyclin D1 = CDK4/cyclin D1 (Homo sapiens, UniProt P11802); assay: biochemical
PKCa = biological target: T3, PKCa (Homo sapiens, UniProt P17252); assay: PKCα kinase assay (Histone 3 phosphorylation); type: biochemical; conditions: Table 1
T3 construct: 6×His (C); made in house; host or cells: Sf9 insect cells (baculovirus)
Protocol: PKCα kinase activity may be measured by the incorporation of radio-labeled phosphate in Histone 3, as described. The reaction mixture (total volume 65 μl) consist of 50 mM Tris-HCl, 1 mM Calcium acetate, 3 mM DTT, 0.03 mg/ml Phosphatidylserine, 2.4 μg/ml PMA, 0.04% NP40, 12 mM Mg/Cl, purified PKCα-100 ng, Histone 3, 0.2 mg/ml, 100 μM ATP, 0.2 μCi {γ-^32P}-ATP. The reaction is carried over 15 min at 37° C. in microplate shaker and is stopped by adding 10 μl 75 mM orthophosphoric acid and placing the plate on ice. 50 μl of the reaction mixture is transferred onto P81 filterplate and after washing off the free radioactive phosphate (3 times with 200 μl 75 mM orthophosphoric acid per well) 50 μl of scintillation liquid (Microscint 40) were added to each well and the radioactivity is measured on Scintillation counter (Topcount, HP).

ERK-2 = ERK-2 (Homo sapiens, UniProt P28482); assay: ERK-2 kinase assay (kinase panel); type: biochemical; conditions: Table 1
human tumour cell lines = assay: Cell-based assays (anti-proliferative)
From the text: These assays including methods for their performance are described in more detail in Example 23. Using such cell line and enzymes assays it may be determined whether a compound is anti-proliferative in the context of the present invention.
as §1

Saos-2 = assay: 72-h MTT cytotoxicity assay, Saos-2; type: cell-based; conditions: Homo sapiens, SAOS-2, read-out: 72-h Cytotoxicity IC 50 Saos-2; Table 3, 72-h MTT
Protocol: as §1

DU145 = assay: 72-h MTT cytotoxicity assay, DU145; type: cell-based; conditions: Homo sapiens, DU-145, read-out: 72-h Cytotoxicity IC 50 DU145; Table 3, 72-h MTT
Protocol: as §1

AGS = assay: 72-h MTT cytotoxicity assay, AGS; type: cell-based; conditions: Homo sapiens, read-out: 72-h Cytotoxicity IC 50 AGS, Table 3, 72-h MTT
Protocol: as §1

HeLa = assay: 72-h MTT cytotoxicity assay, HeLa; type: cell-based; conditions: Homo sapiens, read-out: 72-h Cytotoxicity IC 50 HeLa, Table 3, 72-h MTT
Protocol: as §1

MCF-7 = assay: 72-h MTT cytotoxicity assay, MCF-7; type: cell-based; conditions: Homo sapiens, MCF7, read-out: 72-h Cytotoxicity IC 50 MCF-7; Table 3, 72-h MTT
Protocol: as §1

A549 cells = assay: Mitotic index HitKit (Cellomix); type: cell-based, human; conditions: at a concentration of 4.4 μM, untreated wells […], toxicity above this concentration
From the text: The effect of compound 28 on the mitotic index was studied using mitotic index HitKit (Cellomix). Vinblastine was used as control in the experiments.
Above this concentration a decrease in the number of mitotic cells is observed which correlates with a decrease in the total number of cells.

[1] = test system: Human osteosarcoma tumour cells (Saos-2); assay: Mitotic arrest and apoptosis by phase-contrast microscopy; type: cell-based; conditions: Saos-2 cells, 1 μM, 48 h
Protocol: Human osteosarcoma tumour cells (Saos-2) were treated with 1 μM of compound 28 for 48 h. […] Compound 28-induced accumulation of mitotic cells was further quantified using mitotic index HitKit (Cellomix).

[2] = test system: Human lung carcinoma cells (A549); assay: Induction of programmed cell death (cytoplasmic vacuolation); type: cell-based; conditions: 10 μM, 16 h
Protocol: In addition to the induction of apoptosis some of the compounds of the invention are capable of inducing forms of programmed cell death that is distinct from apoptosis by the criteria of morphology. Human lung carcinoma cells (A549) were treated for 16 h with 10 μM compound 28.

[3] = Table 4, additional data for cytotoxicity assay using the A549 cell line, read-out: A549
[4] = A549, 72 h, read-out: 72-h Cytotoxicity IC 50 A549, Table 3, 72-h MTT

Chain of ERK-2 (P28482 whole entry, species assumed): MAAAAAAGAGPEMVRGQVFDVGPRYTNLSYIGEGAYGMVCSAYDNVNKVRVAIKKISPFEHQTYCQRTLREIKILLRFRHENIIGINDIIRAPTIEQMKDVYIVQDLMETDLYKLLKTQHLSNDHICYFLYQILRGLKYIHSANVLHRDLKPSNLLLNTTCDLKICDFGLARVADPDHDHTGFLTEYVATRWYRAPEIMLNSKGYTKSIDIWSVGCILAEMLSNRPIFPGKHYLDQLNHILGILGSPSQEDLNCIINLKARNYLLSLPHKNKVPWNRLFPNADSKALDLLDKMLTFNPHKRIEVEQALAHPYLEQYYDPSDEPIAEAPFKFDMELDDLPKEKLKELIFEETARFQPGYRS
T2 sequence (P06493 whole entry, species assumed): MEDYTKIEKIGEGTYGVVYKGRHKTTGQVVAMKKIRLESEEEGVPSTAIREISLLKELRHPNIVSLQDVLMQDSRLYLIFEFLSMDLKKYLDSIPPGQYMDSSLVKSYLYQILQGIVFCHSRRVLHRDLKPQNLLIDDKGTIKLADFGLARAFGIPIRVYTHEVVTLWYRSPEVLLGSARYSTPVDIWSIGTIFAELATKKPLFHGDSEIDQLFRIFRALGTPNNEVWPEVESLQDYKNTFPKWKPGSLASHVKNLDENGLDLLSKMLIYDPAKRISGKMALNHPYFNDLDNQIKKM
T2 sequence (P14635 whole entry partner, species assumed): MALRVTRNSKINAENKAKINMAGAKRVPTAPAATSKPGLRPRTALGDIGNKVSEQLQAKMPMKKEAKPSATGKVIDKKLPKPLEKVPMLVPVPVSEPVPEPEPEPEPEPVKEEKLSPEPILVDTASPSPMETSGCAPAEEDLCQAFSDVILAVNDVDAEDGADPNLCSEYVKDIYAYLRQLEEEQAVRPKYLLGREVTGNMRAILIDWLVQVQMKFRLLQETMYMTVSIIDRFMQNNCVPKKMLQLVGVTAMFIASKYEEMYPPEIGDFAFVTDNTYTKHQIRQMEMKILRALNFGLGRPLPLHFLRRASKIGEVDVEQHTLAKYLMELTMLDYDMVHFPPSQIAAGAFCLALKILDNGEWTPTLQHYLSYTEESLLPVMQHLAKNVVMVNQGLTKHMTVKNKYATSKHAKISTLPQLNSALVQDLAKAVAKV
Chain of SAPK2a (Q16539 whole entry, species assumed): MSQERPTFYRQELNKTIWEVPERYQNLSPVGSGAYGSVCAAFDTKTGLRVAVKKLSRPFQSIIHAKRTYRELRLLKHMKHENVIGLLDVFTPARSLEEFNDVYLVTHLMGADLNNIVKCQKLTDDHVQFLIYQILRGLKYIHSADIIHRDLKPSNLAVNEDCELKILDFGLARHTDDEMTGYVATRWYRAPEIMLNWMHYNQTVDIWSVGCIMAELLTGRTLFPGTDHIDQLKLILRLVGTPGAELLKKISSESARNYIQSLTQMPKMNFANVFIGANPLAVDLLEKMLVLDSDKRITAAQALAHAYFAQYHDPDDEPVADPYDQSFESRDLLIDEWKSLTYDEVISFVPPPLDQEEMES
Chain of CDK4/cyclin D1 (P11802 whole entry, species assumed): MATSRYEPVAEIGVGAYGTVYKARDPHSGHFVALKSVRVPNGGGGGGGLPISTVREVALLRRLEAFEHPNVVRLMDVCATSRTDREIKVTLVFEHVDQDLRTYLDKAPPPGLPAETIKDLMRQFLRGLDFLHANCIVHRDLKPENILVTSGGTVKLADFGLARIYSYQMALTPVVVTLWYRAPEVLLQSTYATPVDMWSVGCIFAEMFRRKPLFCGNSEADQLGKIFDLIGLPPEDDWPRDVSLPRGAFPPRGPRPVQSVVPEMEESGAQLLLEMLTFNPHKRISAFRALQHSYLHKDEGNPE
Chain of CDK4/cyclin D1 (P24385 whole entry partner, species assumed): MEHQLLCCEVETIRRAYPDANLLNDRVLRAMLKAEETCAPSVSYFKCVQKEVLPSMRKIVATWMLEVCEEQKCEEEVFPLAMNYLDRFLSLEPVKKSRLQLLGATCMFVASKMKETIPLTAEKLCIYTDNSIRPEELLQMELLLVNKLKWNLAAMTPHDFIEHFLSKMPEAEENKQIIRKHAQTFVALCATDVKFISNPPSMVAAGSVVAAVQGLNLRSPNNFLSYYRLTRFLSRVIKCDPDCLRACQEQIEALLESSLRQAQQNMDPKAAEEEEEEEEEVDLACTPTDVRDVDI

Compound | IC50 (A549; [3]) [µM] | IC50 (S6) [µM] | IC50 (CDK1/cyclin B) [µM] | IC50 (SAPK2a) [µM] | IC50 (PKCa) [µM] | IC50 (ERK-2) [µM] | IC50 (Saos-2) [µM] | IC50 (DU145) [µM] | IC50 (A549; [4]) [µM] | IC50 (AGS) [µM] | IC50 (HeLa) [µM] | IC50 (MCF-7) [µM] | other results
Cc1nc(C)c(-c2ccnc(Nc3ccc(Br)cc3)n2)s1 [Compound 31, (4-Bromo-phenyl)-{4-(2,4-dimethyl-thiazol-5-yl)-pyrimidin-2-yl}-amine] | 0.3 ± 0.05 |  |  |  |  |  |  |  |  |  |  |  | IC50 (CDK2/cyclin E; Table 2, further results for CDK2/cyclin E inhibition, read-out: CDK2/cyclin E): 0.2 µM; melting point: 173 to 175 °C
Cc1nc(C)c(-c2ccnc(Nc3ccc(Cl)cc3)n2)s1 [Compound 6, (4-Chloro-phenyl)-{4-(2,4-dimethyl-thiazol-5-yl)-pyrimidin-2-yl}-amine] |  | > 20 | > 20 | > 20 | > 20 | > 20 |  |  |  |  |  |  | IC50 (CDK2/cyclin E; CDK2/cyclin E, Table 2, further results for CDK2/cyclin E inhibition): 5 ± 9 µM; IC50 (CDK2/cyclin E; Kinase assay IC50 CDK2/cyclin E, Table 1): 9 ± 12 µM; IC50 (CDK4/cyclin D1): 0.5 ± 0.5 µM
Cc1nc(C)c(-c2ccnc(Nc3ccc(I)cc3)n2)s1 [Compound 34, {4-(2,4-Dimethyl-thiazol-5-yl)-pyrimidin-2-yl}-(4-iodo-phenyl)-amine] | 0.02 |  |  |  |  |  |  |  |  |  |  |  | anti-proliferative effect (in words) (human tumour cell lines): even more effective anti-proliferative agent
Cc1nc(C)c(-c2ccnc(Nc3cccc([N+](=O)[O-])c3)n2)s1 [Compound 12, {4-(2,4-Dimethyl-thiazol-5-yl)-pyrimidin-2-yl}-(3-nitro-phenyl)-amine] | 0.2 | > 20 | 0.1 | > 20 | > 20 | > 20 | 1.4 ± 0.3 | 1 ± 0.1 | 1.5 ± 0.3 | 1 ± 0.2 | 1.2 ± 0.2 | 1.7 ± 0.1 | 
Cc1nc(C)c(-c2ccnc(Nc3ccc(F)cc3)n2)s1 [Compound 21, {4-(2,4-Dimethyl-thiazol-5-yl)-pyrimidin-2-yl}-(4-fluoro-phenyl)-amine] | 6.3 | 1 | 0.2 | > 20 | > 20 | 2.5 | 8.5 ± 1.6 | 4.3 ± 0.2 | 5.4 ± 0.4 | 4.2 ± 0.3 | 3.2 ± 0.8 | 9.9 ± 0.4 | 
Cc1nc(C)c(-c2ccnc(Nc3ccc(C(F)(F)F)cc3)n2)s1 [Compound 28, {4-(2,4-Dimethyl-thiazol-5-yl)-pyrimidin-2-yl}-(4-trifluoromethyl-phenyl)-amine] | 3.5 |  |  |  |  |  |  |  |  |  |  |  | maximum percentage of mitotic cells (A549 cells): 17%; mitotic arrest and induction of apoptosis [1]: mitotic arrest and induction of apoptosis; also recorded: accumulation of mitotic cells and appearance of apoptotic cells was observed; induction of programmed cell death, cytoplasmic vaculation [2]: Extensive cytoplasmic vaculation is observed
